Test results from patent US4939177A, “Use of avarol for the control of AIDS and ARC” (Merz + Co. GmbH & Co., priority 1986, dated 1990).

Tests used:
[1] = system: Arthus reaction in Sprague-Dawley rats; assay: Antibody mediated hypersensitivity (modified active Arthus reaction, ovalbumin); type: in vivo, rat
[2] = system: human peripheral blood lymphocytes (IgG); assay: In vitro IgG production by peripheral blood lymphocytes; type: cell-based
Protocol: (§1) Human peripheral blood lymphocytes (6×10^5 cells/ml) were cultured in the presence of 0 to 2 μg/ml of pokeweed mitogen (PWM; Sigma no. 9379) in Dulbeccos minimum essential medium, supplemented with 20% fetal calf serum, for 6 days. The assays were performed in a final volume of 200 μl in microtiter plates (Dynatech; M129B) (Muller et al., Eur. J. Cancer Clin. Oncol. 22: 473-476; 1986). Avarol in a concentration range of 0-3 μg/ml was added at time 0 or 3 days after starting the culture. The supernatants were harvested and assayed for human immunoglobulin content.
(§2) The culture supernatants were assayed by the enzyme-linked immunosorbent assay (Houtman et al., Clin. Exp. Immunol. 62: 696-704; 1985) using anti-human IgG (Dakopatts, Hamburg; P214) and anti-human IgM (Dakopatts; P215). These antibodies were conjugated to peroxidase. Bound enzyme activity was measured using 2,2'-azino-bis(3-ethylbenzthiazolinesulfonic acid) (Sigma no. A-1888) as substrate.

IgM titer = assay: Serum IgM titer of SRBC-immunized mice; type: in vivo, mouse; conditions: 30 mg/kg i.p.
Protocol: (§3) The plaque test of Jerne and Nordin (Science 140: 405-406, 1963) was used with the modification given by Cunningham and Szenberg (Immunolog. 14: 599-601; 1968). Briefly, 8 male NMRI mice per group (20-22 g) were immunized on day 0 by i.p. injection of 5×10^8 SRBC in 0.5 ml saline. Treatment with avarol was done i.p. either from day 0 to day +4 or from day -4 to day 0. One hour after the last drug administration, the animals were killed by a blow on the head and bled. The spleens were removed and a single cell suspension was prepared by teasing the pooled spleens through a 120-μm mesh sieve. After lysing the erythrocytes by 0.15M NH4 Cl, the cells were washed twice in Hank's balanced salt solution containing 29 ml of 7.5% NaHCO3 and 10 ml of 1M HEPES buffer solution per one liter. The cells were resuspended in 2 ml per spleen. Six Cunningham chambers per group were filled with a mixture of 0.5 ml of a suitable dilution of spleen cells (generally 1:100), 0.5 ml of a suspension of SRBC (10^9 /ml) and 125 μl of normal guinea pig complement. After 90-120 min of incubation at 37° C., the number of plaques was counted. Plaques per spleen or per 10^6 spleen cells were calculated.
The pooled blood of 8 mice was centrifuged to obtain the serum. IgM and IgG titers were measured with the mercaptoethanol method (Hudson, L. and Hay, F. C. Practical Immunology, Blackwell Sci., Oxford; 1983).

[3] = system: plaque forming cells in the spleen of mice; assay: Jerne plaque test, plaque forming cells in spleen of SRBC-immunized mice; type: in vivo, mouse; conditions: for Plaque forming cells per 10^6 cells: 30 mg/kg i.p.
Protocol: Concerning the functional consequences of the compound onto B-cells in vitro, I found (previous section) that both the IgG and the IgM secretion is stimulated in cultures of human lymphoid cells (unseparated) which are treated with non-cytostatic concentrations of avarol. This finding is supported by the results of the Jerne plaque test.
as §3

HTLV-III p15 = HTLV-III p15 expression in H9-HTLV-III cells, immunofluorescence; type: cell-based; conditions: for Expression of p15 (in %): none = 100
Protocol: H9-cells (M. Popovic, M. G. Sarngadharan, E. Reed, R. C. Gallo, Science: 224, 1984, 497-500) were treated with Polybren® (hexadimethrinbromide available on the market; 2 μg/ml) for 30 minutes at 37° C., washed free of Polybren and infected with 2×10^8 HTLV-III virus particles (isolated from H9 cell cultures by the method of M. Popovic; see above) per 4×10^5 H9 cells. Some assays which were not treated with drugs were used as positive controls, while different concentrations of the compound to be tested (avarone or avarol and their derivatives) were added to the test samples. The HTLV-III reverse transcriptase activity of these cultures was analyzed in the manner described above.
The immunofluorescence assays were carried out on methanol:acetone (1:1)-fixed cells with the use of monoclonal antibodies (from the mouse) against HTLV-III p15 (core protein of MW=15,000) and p24 (core protein of MW=24,000). Both of these proteins are marker proteins which indicate the presence of virus particles in the cells. The HTLV-III Infected cells with or without drug treatment were fixed on toxoplasmosis slides. After fixation with methanol-acetone (1:1) for 30 minutes at room temperature, the slides were stored in sealed plastic containers at -20° C. until use. The monoclonal antibodies were added to the cells, incubated at room temperature in a moisture chamber for one hour and washed for two hours with PBS (phospate buffered saline) containing 0.25% Triton X-100. The cells were then treated for one hour with fluorescein (FITC) labeled goat anti-mouse IgG (Capell Labs.) and washed overnight with PBS buffer containing 0.25% Triton X-100. Fifty percent glycerin was added to the slides and the cell fluorescence was determined with a Zeiss fluorescence microscope.
When the target H9-cells were treated with the HTLV-III isolate and cultivated without the compounds to be tested, the H9-cells were infected and, as established by indirect immunofluorescence assay, there was expression of the p24 and p15 protein. After incubation of the H9-HTLV-III cells with the compounds to be tested, a practically complete protective effect was observed.

[4] = system: human peripheral blood lymphocytes (IgM); assay: In vitro IgM production by peripheral blood lymphocytes; type: cell-based
Protocol: as §1, §2

herpes simplex virus = conditions: in vitro, cultures of herpes simplex virus; cited from earlier work
[5] = 0.3 or 1 μg/ml, irrespective of PWM
[6] = avarol 0.3 μg/ml, PWM +, 0 to 6 days
[7] = avarol 0.3 μg/ml, PWM +, 3 to 6 days
[8] = avarol 0.3 μg/ml, PWM -, 0 to 6 days
[9] = avarol 0.3 μg/ml, PWM -, 3 to 6 days
[10] = avarol 1.0 μg/ml, PWM +, 0 to 6 days
[11] = avarol 1.0 μg/ml, PWM +, 3 to 6 days
[12] = avarol 1.0 μg/ml, PWM -, 0 to 6 days
[13] = avarol 1.0 μg/ml, PWM -, 3 to 6 days
[14] = avarol 3.0 μg/ml, PWM +, 0 to 6 days
[15] = avarol 3.0 μg/ml, PWM +, 3 to 6 days
[16] = avarol 3.0 μg/ml, PWM -, 0 to 6 days
[17] = avarol 3.0 μg/ml, PWM -, 3 to 6 days

Which results are given for `CC1=CCC[C@H]2[C@](C)(Cc3cc(O)ccc3O)[C@@H](C)CC[C@]12C` [Avarol, 2-[(1R)-1,2,3,4,4a,7,8,8aα-octahydro-1β,2β,4aβ,5-tetramethyl-1-naphthylmethyl]-1,4-benzenediol]?
Arthus reaction, in words ([1]; 30 mg/kg, 24 hours and 30 minutes before challenge, P>0.05): weak suppression of the reaction; Arthus reaction, in words ([1]; 3-30 mg/kg i.p., day -1 to +2, day +18 to +21, or immediately before challenge): no significant suppression of the Arthus reaction; IgG production, in words [2, 5]: significant increase; IgG synthesized [2, 6]: 6.7 ± 1.5 µg/mL; IgG synthesized [2, 7]: 7.9 ± 1.9 µg/mL; IgG synthesized [2, 8]: 2.1 ± 0.5 µg/mL; IgG synthesized [2, 9]: 2.0 ± 0.5 µg/mL; IgG synthesized [2, 10]: 7.0 ± 1.6 µg/mL; IgG synthesized [2, 11]: 8.5 ± 1.9 µg/mL; IgG synthesized [2, 12]: 2.3 ± 0.6 µg/mL; IgG synthesized [2, 13]: 2.2 ± 0.5 µg/mL; IgG synthesized [2, 14]: 3.9 ± 1.0 µg/mL; IgG synthesized [2, 15]: 4.9 ± 1.0 µg/mL; IgG synthesized [2, 16]: 1.2 ± 0.3 µg/mL; IgG synthesized [2, 17]: 1.3 ± 0.3 µg/mL; IgG production, in words ([2]; higher avarol concentrations): turned to normal values; Titer IgM (IgM titer; from 0 to +4 days, untreated 256): 256; Titer IgM (IgM titer; from -4 to 0 days, untreated 512): 512; Plaque forming cells per 10^6 cells ([3]; from 0 to +4 days, untreated 2,782): 3,316; Plaque forming cells per 10^6 cells ([3]; from -4 to 0 days, untreated 2,259): 2,202; higher number of plaque forming cells/spleen ([3]; 30 mg/kg, day 0 to day +4): 28%; increase of plaque forming cells/spleen ([3]; 30 mg/kg, day -4 to day 0): 21%; Expression of p15 (in %) (HTLV-III p15; 0.1 μg/ml): 37%; Expression of p15 (in %) (HTLV-III p15; 1 μg/ml): 12%; Expression of p15 (in %) (HTLV-III p15; 5 μg/ml): 12%; expression of HTLV-III protein p15, in words (HTLV-III p15; H9-HTLV-III cells): significant reduction; IgM production, in words [4, 5]: significant increase; IgM synthesized [4, 6]: 20.4 ± 5.1 µg/mL; IgM synthesized [4, 7]: 24.7 ± 5.6 µg/mL; IgM synthesized [4, 8]: 14.7 ± 3.4 µg/mL; IgM synthesized [4, 9]: 14.2 ± 3.3 µg/mL; IgM synthesized [4, 10]: 23.5 ± 5.5 µg/mL; IgM synthesized [4, 11]: 25.6 ± 5.9 µg/mL; IgM synthesized [4, 12]: 15.6 ± 4.0 µg/mL; IgM synthesized [4, 13]: 15.9 ± 4.2 µg/mL; IgM synthesized [4, 14]: 10.5 ± 2.6 µg/mL; IgM synthesized [4, 15]: 11.7 ± 2.9 µg/mL; IgM synthesized [4, 16]: 8.1 ± 1.8 µg/mL; IgM synthesized [4, 17]: 8.4 ± 1.9 µg/mL; IgM production, in words ([4]; higher avarol concentrations): turned to normal values; virostatic action (herpes simplex virus): certain virostatic action in vitro
